Test systems include 786-0 renal; A498 renal; ACHN renal; HCC-2998 colon; HT29 colon; KM12 colon; MALME-3M melanoma; MCF7 breast; NCI-H226 lung; NCI-H23 lung; NCI/ADR-RES ovarian; OVCAR-4 ovarian; OVCAR-5 ovarian; RPMI-8226 leukemia; SF-268 CNS; SK-MEL-28 melanoma; SW-620 colon; T-47D breast.
Common to all, as to experiment: inhibition of tumour cell growth, NCI panel, 48 h

Molecules are shown by their SMILES.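 The compound was tested at five concentrations on cells cultured in 96-well plates, with a 48-hour exposure period. At the TGI there is no net growth.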

On to `CCOC(=O)c1sc2c(c1OC(=O)c1ccc(Cl)cc1Cl)c(=O)n(-c1ccccc1)c(=S)n2-c1ccccc1`, for which the TGI in the experiment with 786-0 renal was > 100 µM; with A498 renal, 46.1 µM; with ACHN renal it was > 100 µM; with HCC-2998 colon it was > 74.6 µM; in the experiment with HT29 colon, > 77.5 µM; with KM12 colon, > 42.3 µM. The TGI with MALME-3M melanoma was 66.3 µM; with MCF7 breast it was > 100 µM; with NCI-H226 lung, > 33.6 µM; in the experiment on NCI-H23 lung it was > 82.6 µM; with NCI/ADR-RES ovarian it was > 47.8 µM; in the experiment on OVCAR-4 ovarian, > 100 µM. Besides, the TGI is > 100 µM in the experiment on OVCAR-5 ovarian; > 54.5 µM with RPMI-8226 leukemia; > 100 µM with SF-268 CNS; > 100 µM in the experiment with SK-MEL-28 melanoma; > 100 µM in the experiment on SW-620 colon; > 100 µM with T-47D breast.
For the compound `N[C@@H]1c2c(Br)sc(Br)c2C(=O)[C@H]1Br`, the TGI in the experiment on 786-0 renal is 63.5 µM; in the experiment with A498 renal, > 69.9 µM; in the experiment with ACHN renal, 43.8 µM; in the experiment on HCC-2998 colon, > 76.1 µM; in the experiment with HT29 colon, 53.3 µM; with KM12 colon it was > 61.5 µM. Further, the TGI in the experiment on MALME-3M melanoma is 57.4 µM; in the experiment on MCF7 breast, > 100 µM; in the experiment on NCI-H226 lung, > 58.4 µM; in the experiment with NCI-H23 lung, 57.4 µM; in the experiment with NCI/ADR-RES ovarian it was 53.8 µM; in the experiment on OVCAR-4 ovarian it was 89.5 µM. The TGI with OVCAR-5 ovarian is > 100 µM; in the experiment with RPMI-8226 leukemia, 39.5 µM; in the experiment with SF-268 CNS it was > 100 µM; in the experiment with SK-MEL-28 melanoma it was 54.8 µM; in the experiment with SW-620 colon, 44.4 µM; in the experiment with T-47D breast it was 84 µM.
In the case of `CC(C)(Cl)C(Br)CCC(=CCBr)CBr` (mixture of isomers), the TGI in the experiment on 786-0 renal amounted to 3.17 µM; with A498 renal, 18.3 µM; in the experiment on ACHN renal, 15.6 µM; with HCC-2998 colon, 14 µM; in the experiment on HT29 colon, 4.65 µM; in the experiment with KM12 colon, 5.93 µM. In addition, the TGI in the experiment with MALME-3M melanoma was 4.74 µM; in the experiment with MCF7 breast, 8.42 µM; with NCI-H226 lung, 51.9 µM; in the experiment with NCI-H23 lung, 9.07 µM; in the experiment on NCI/ADR-RES ovarian, > 24.5 µM; in the experiment with OVCAR-4 ovarian, 5.06 µM. The TGI stood at 26.4 µM in the experiment on OVCAR-5 ovarian; 3.22 µM in the experiment with RPMI-8226 leukemia; 4.99 µM in the experiment with SF-268 CNS; 10.8 µM in the experiment with SK-MEL-28 melanoma; 5.53 µM in the experiment on SW-620 colon; 17.3 µM with T-47D breast.
`Cc1ccc(S(=O)(=O)NN=C2C(C)CC(C(C)(C)C)CC2C)cc1` (stereo not given): the TGI in the experiment on 786-0 renal was found to be 32.9 µM; in the experiment on A498 renal, 31.4 µM; with HCC-2998 colon it was 32.1 µM; in the experiment with HT29 colon it was 32.8 µM; in the experiment with KM12 colon it was 31.4 µM; in the experiment with MALME-3M melanoma it was 32.6 µM. The TGI worked out at 38.6 µM in the experiment with MCF7 breast; 34.5 µM with NCI-H226 lung; 56.5 µM in the experiment with NCI-H23 lung; 82.1 µM in the experiment on NCI/ADR-RES ovarian; 29.1 µM with OVCAR-4 ovarian; 31.5 µM with OVCAR-5 ovarian. Besides, the TGI was found to be 52.8 µM with RPMI-8226 leukemia, 36.6 µM in the experiment on SK-MEL-28 melanoma, 40.6 µM with SW-620 colon and 50.7 µM in the experiment with T-47D breast.
`CCOc1ccc(-n2c(=O)c3nn4c(=O)n(-c5ccc(OCC)cc5)c(=O)c4nn3c2=O)cc1`: the TGI was > 100 µM with 786-0 renal; 67.9 µM in the experiment with A498 renal; > 100 µM in the experiment with ACHN renal; > 100 µM with HCC-2998 colon; > 100 µM in the experiment with HT29 colon; > 100 µM in the experiment with KM12 colon. The TGI in the experiment on MALME-3M melanoma, with MCF7 breast, with NCI-H226 lung, in the experiment with NCI-H23 lung, in the experiment on NCI/ADR-RES ovarian and in the experiment on OVCAR-4 ovarian was > 100 µM throughout. The TGI in the experiment with OVCAR-5 ovarian, in the experiment with RPMI-8226 leukemia, with SF-268 CNS, in the experiment with SK-MEL-28 melanoma, with SW-620 colon and in the experiment with T-47D breast was > 100 µM in each case.
With `CN(NC(=O)c1ccc(Cl)cc1)C1=NCCCCN1`, the TGI with 786-0 renal, in the experiment with A498 renal, with ACHN renal, in the experiment with HCC-2998 colon, with HT29 colon and in the experiment with KM12 colon was > 100 µM throughout. In addition, the TGI with MALME-3M melanoma, in the experiment on MCF7 breast, in the experiment with NCI-H226 lung, in the experiment on NCI-H23 lung, in the experiment with NCI/ADR-RES ovarian and in the experiment with OVCAR-4 ovarian was > 100 µM throughout. For the same compound, the TGI with OVCAR-5 ovarian, in the experiment with RPMI-8226 leukemia, in the experiment with SF-268 CNS, in the experiment on SK-MEL-28 melanoma, with SW-620 colon and with T-47D breast was > 100 µM each time.
Take `CC(=O)OCc1cc(OC(C)=O)c2cc3c(OC(C)=O)cccc3c(OC(C)=O)c2c1`: the TGI in the experiment on 786-0 renal was found to be 34.4 µM; in the experiment with A498 renal, 27.3 µM; in the experiment on ACHN renal it was 34.2 µM; in the experiment on HCC-2998 colon it was 31.6 µM; in the experiment on HT29 colon, 43.9 µM; in the experiment with MALME-3M melanoma it was 4.08 µM. In addition, the TGI with MCF7 breast came out at 38.9 µM; in the experiment on NCI-H226 lung, 47.3 µM; with NCI-H23 lung it was 56.8 µM; with NCI/ADR-RES ovarian, 43.4 µM; in the experiment on OVCAR-4 ovarian, 59.3 µM; in the experiment on OVCAR-5 ovarian, 46.4 µM. For the same compound, the TGI with RPMI-8226 leukemia was found to be 44.6 µM; in the experiment with SF-268 CNS it was 58.1 µM; in the experiment with SK-MEL-28 melanoma it was 51.7 µM; with SW-620 colon it was 44.2 µM; in the experiment with T-47D breast it was 51.3 µM.
For `Cc1ccc(OC2CC(n3cnc4c(=O)[nH]c(Br)nc43)OC2Oc2ccc(C)cc2)cc1` (stereo not given), the TGI with 786-0 renal was 74.9 µM; in the experiment with A498 renal, > 100 µM; in the experiment on ACHN renal, 38 µM; in the experiment with HCC-2998 colon, 47.3 µM; in the experiment on HT29 colon, 83.4 µM; in the experiment with KM12 colon, > 100 µM. Besides, the TGI was 61.5 µM with MALME-3M melanoma; > 100 µM with MCF7 breast; > 100 µM in the experiment on NCI-H226 lung; 70.3 µM with NCI-H23 lung; 69.2 µM in the experiment with NCI/ADR-RES ovarian; > 100 µM with OVCAR-4 ovarian. For the same compound, the TGI in the experiment with OVCAR-5 ovarian was 48.2 µM; in the experiment with RPMI-8226 leukemia, 87.9 µM; in the experiment with SF-268 CNS it was 58.1 µM; in the experiment with SW-620 colon it was > 100 µM; in the experiment with T-47D breast, 62.1 µM.
